Data as given in PubChem BioAssay AID2060893 (Molecular Pharmacology Branch, DTP, NCI, 2025).

System: K86415-001-R-J1-PDC complex spheroids, viability
Assay: Anticancer human tumor K86415-001-R-J1-PDC patient-derived lung adenocarcinoma cell line growth inhibition [RAS]
Conditions: for IC50: curve of first compound; for viability, T/C: stronger effect = lower value
Excerpt: RAS pathway inhibitors in Combinations in Complex Spheroids
A high-throughput screen of multi-cell type tumor spheroids was designed to identify active combinations of RAS pathway inhibitors and targeted small molecules. Complex spheroids include a stromal component modeled by human endothelial cells (HUVEC) and fibroblasts modeled by human mesenchymal stem cells (MSCs). The concentration ranges selected for each drug and investigational agent were based upon clinically achievable concentrations if the clinical Cmax of the agent was known.
Compounds. The drugs and investigational agents: abemaciclib (NSC768073), cobimetinib (NSC768068), divarasib (GDC6063, NSC841802), docetaxel (NSC628503), GDC-1971 (RLY-1971, NSC841576), gemcitabine (NSC613327), inavolisib (NSC800729), ipatasertib (NSC767898), KB-0742 (NSC834161), MRTX-1133 (NSC836407), osimertinib (NSC779217), RMC-4630 (NSC839698), RMC-6236 (NSC851965), RMC-6291 (NSC852671), Ro-3306 (NSC812927), sapanisertib (NSC764658), SN-38 (NSC673596), staurosporine (NSC755774), SY5609 (NSC837396), and tovorafenib (DAY101, NSC766906), were obtained from the National Cancer Institute (NCI) Developmental Therapeutics Program Chemical Repository. The FDA-approved anticancer drug set is available from the NCI Developmental Therapeutics Program. […] The stock solutions were prepared in dimethyl sulfoxide (DMSO, Sigma-Aldrich, St. Louis, MO, cat. D2650) at 800-fold the tested concentration and stored at -70 degrees C prior to their use. All drugs and investigational agents were tested over a range starting from a high concentration at or near the clinical Cmax and decreasing in half-log increments. If the clinical Cmax for an agent had not been determined, the highest concentration tested was 10 microM.
Cell Culture. All cells were maintained in an incubator at 37 degrees C and 5% CO2 with 95% humidity. The PDC lines were cultured according to standard operating procedures established by the NCI PDMR. All PDCs were thawed and cultured in Matrigel-coated flasks prepared with a working solution of 1X Ham's F-12 nutrient mix, without supplementation (Invitrogen, Waltham, MA, cat. 11765054), 100 U/mL penicillin-streptomycin (Invitrogen, cat. 15140122), and 2.5% Matrigel (Corning Inc., Corning, NY, cat. 354248) for the first three passages. The 362531-283-R-J2-PDC and 782815-120-R-J1-PDC lines were cultured in 6C/Colon 1B media, which includes advanced DMEM/F-12 (Thermo Fisher Scientific, cat. 12634028), 10 mM HEPES (Thermo Fisher Scientific, cat. 15630080), 1X GlutaMAX supplement (Thermo Fisher Scientific, cat. 35050061), 0.1 mg/mL primocin (InvivoGen, San Diego, CA, cat. ant-pm-2), 10% defined fetal bovine serum, heat inactivated (HyClone Laboratories Inc., Logan, UT, cat. SH30070.03HI), 50% L-WRN conditioned media (ATCC, cat. CRL-3276), 1.25 mM N-Acetyl-L-cysteine (Sigma-Aldrich, cat. A9165), 10 mM nicotinamide (Sigma-Aldrich, cat. N0636), 1X B-27 supplement (Thermo Fisher Scientific, cat. 17504044), 1X N-2 supplement (Thermo Fisher Scientific, cat. 17502048), 50 ng/mL human EGF (Thermo Fisher Scientific, cat. PHG0311), and 10 microM Y-27632 dihydrochloride (Tocris Bioscience, cat. 1254). The K12877-001-R-J1-PDC line was cultured in 6I media, which includes all 6C/Colon 1B media plus 10 ng/mL human FGF-10 (PeproTech, cat. 100-26), 1 ng/mL human FGF-2 (PeproTech, cat. 100-18B), 1 µM prostaglandin E2 (Tocris Bioscience, cat. 2296), […] hydrocortisone (Sigma-Aldrich, cat. H4001), and […] bovine insulin (Sigma-Aldrich, cat. I6634). The K86415-001-R-J1-PDC line was cultured in 6D media, which includes all 6C/Colon 1B media components minus the L-WRN conditioned media. The 485176-168-R4-J1-PDC was cultured in PANC media, which includes all 6C/Colon 1B media plus 100 ng/mL human FGF-10 (PeproTech, cat. 100-26), 500 nM SB-431542 (Selleckchem, cat. S1067), and 10 nM gastrin (Tocris Bioscience, cat. 3006). […]

[1] = second compound 0.0316 µM, first compound 0.0316 µM
[2] = second compound 0.0316 µM, first compound 0.1 µM
[3] = second compound 0.0316 µM, first compound 0.316 µM
[4] = second compound 0.0316 µM, first compound 1 µM
[5] = second compound 0.0316 µM, first compound 3.16 µM
[6] = second compound 0.0316 µM, first compound 10 µM
[7] = second compound 0.1 µM, first compound 0.0316 µM
[8] = second compound 0.1 µM, first compound 0.1 µM
[9] = second compound 0.1 µM, first compound 0.316 µM
[10] = second compound 0.1 µM, first compound 1 µM
[11] = second compound 0.1 µM, first compound 3.16 µM
[12] = second compound 0.1 µM, first compound 10 µM
[13] = second compound 0.316 µM, first compound 0.0316 µM
[14] = second compound 0.316 µM, first compound 0.1 µM
[15] = second compound 0.316 µM, first compound 0.316 µM
[16] = second compound 0.316 µM, first compound 1 µM
[17] = second compound 0.316 µM, first compound 3.16 µM
[18] = second compound 0.316 µM, first compound 10 µM
[19] = second compound 1 µM, first compound 0.0316 µM
[20] = second compound 1 µM, first compound 0.1 µM
[21] = second compound 1 µM, first compound 0.316 µM
[22] = second compound 1 µM, first compound 1 µM
[23] = second compound 1 µM, first compound 3.16 µM
[24] = second compound 1 µM, first compound 10 µM
[25] = second compound 3.16 µM, first compound 0.0316 µM
[26] = second compound 3.16 µM, first compound 0.1 µM
[27] = second compound 3.16 µM, first compound 0.316 µM
[28] = second compound 3.16 µM, first compound 1 µM
[29] = second compound 3.16 µM, first compound 3.16 µM
[30] = second compound 3.16 µM, first compound 10 µM
[31] = second compound 10 µM, first compound 0.0316 µM
[32] = second compound 10 µM, first compound 0.1 µM
[33] = second compound 10 µM, first compound 0.316 µM
[34] = second compound 10 µM, first compound 1 µM
[35] = second compound 10 µM, first compound 3.16 µM
[36] = second compound 10 µM, first compound 10 µM
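Also: spheroids exposed to agents for seven days before readout.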

`CCC(CC)c1cc(NC2CCC(N)C2)n2nccc2n1` (stereo unspecified) + C#Cc1c(F)ccc2cc(O)cc(-c3ncc4c(N5CC6CCC(C5)N6)nc(OCC56CCCN5CC(F)C6)nc4c3F)c12 showed an IC50 (second compound 0.0316 µM) of 1800 nM, an IC50 (second compound 0.1 µM) of 1780 nM and an IC50 (second compound 0.316 µM) of 1710 nM. For the same compound, the IC50 (second compound 1 µM) was 1620 nM, the IC50 (second compound 3.16 µM) was 1050 nM and the IC50 (second compound 10 µM) was < 31.6 nM. For the same compound, the viability, T/C [1] was 108%, the viability, T/C [2] was 126% and the viability, T/C [3] was 109%. It also gave a viability, T/C [4] of 98.1%, a viability, T/C [5] of 3.47% and a viability, T/C [6] of 3.41%. For the same compound, the viability, T/C [7] was 99.1%, the viability, T/C [8] was 98.2% and the viability, T/C [9] was 109%. It also gave a viability, T/C [10] of 97.4%, a viability, T/C [11] of 2.92% and a viability, T/C [12] of 2.14%. The viability, T/C [13] was 97.1%, the viability, T/C [14] was 103% and the viability, T/C [15] was 107%. It also gave a viability, T/C [16] of 91.1%, a viability, T/C [17] of 3.17% and a viability, T/C [18] of 3.38%. The viability, T/C [19] was 74.2%, the viability, T/C [20] was 83.7% and the viability, T/C [21] was 85.7%. For the same compound, the viability, T/C [22] was 90.2%, the viability, T/C [23] was 3.62% and the viability, T/C [24] was 2.6%. It also gave a viability, T/C [25] of 43.4%, a viability, T/C [26] of 46.1% and a viability, T/C [27] of 50.1%. The viability, T/C [28] was 68.2%, the viability, T/C [29] was 3.28% and the viability, T/C [30] was 2.71%. For the same compound, the viability, T/C [31] was 15.4%, the viability, T/C [32] was 18.1% and the viability, T/C [33] was 24.3%. The viability, T/C [34] was 33.3%, the viability, T/C [35] was 2.78% and the viability, T/C [36] was 2.37%.
Work on `Cc1nc(N2CCC3(CC2)COC(C)C3N)c(CO)nc1Sc1ccnc(N)c1Cl` (stereo unspecified) + C#Cc1c(F)ccc2cc(O)cc(-c3ncc4c(N5CC6CCC(C5)N6)nc(OCC56CCCN5CC(F)C6)nc4c3F)c12 yielded an IC50 (second compound 0.0316 µM) of 103 nM, an IC50 (second compound 0.1 µM) of 104 nM and an IC50 (second compound 0.316 µM) of 49.5 nM. The IC50 (second compound 1 µM) was < 31.6 nM, the IC50 (second compound 3.16 µM) was < 31.6 nM and the IC50 (second compound 10 µM) was < 31.6 nM. The viability, T/C [1] was 64.5%, the viability, T/C [2] was 50.2% and the viability, T/C [3] was 33.5%. For the same compound, the viability, T/C [4] was 22.3%, the viability, T/C [5] was 19% and the viability, T/C [6] was 17.5%. The viability, T/C [7] was 59.5%, the viability, T/C [8] was 51.5% and the viability, T/C [9] was 29.6%. The viability, T/C [10] was 20%, the viability, T/C [11] was 14.9% and the viability, T/C [12] was 14%. For the same compound, the viability, T/C [13] was 54.6%, the viability, T/C [14] was 42.8% and the viability, T/C [15] was 21.3%. For the same compound, the viability, T/C [16] was 13.1%, the viability, T/C [17] was 11.4% and the viability, T/C [18] was 10.8%. It also gave a viability, T/C [19] of 41.6%, a viability, T/C [20] of 25.7% and a viability, T/C [21] of 15.7%. For the same compound, the viability, T/C [22] was 7.73%, the viability, T/C [23] was 8.67% and the viability, T/C [24] was 8.04%. For the same compound, the viability, T/C [25] was 24.1%, the viability, T/C [26] was 13.5% and the viability, T/C [27] was 11%. For the same compound, the viability, T/C [28] was 7.3%, the viability, T/C [29] was 6.6% and the viability, T/C [30] was 5.45%. For the same compound, the viability, T/C [31] was 10.5%, the viability, T/C [32] was 8.85% and the viability, T/C [33] was 6.18%. It also gave a viability, T/C [34] of 5.37%, a viability, T/C [35] of 3.83% and a viability, T/C [36] of 3.85%.
With `NC1c2ccccc2OC12CCN(c1cnc3c(N4CCCc5ncccc54)n[nH]c3n1)CC2` (stereo unspecified) + C#Cc1c(F)ccc2cc(O)cc(-c3ncc4c(N5CC6CCC(C5)N6)nc(OCC56CCCN5CC(F)C6)nc4c3F)c12 the IC50 (second compound 0.0316 µM) was < 31.6 nM, the IC50 (second compound 0.1 µM) was < 31.6 nM and the IC50 (second compound 0.316 µM) was < 31.6 nM. For the same compound, the IC50 (second compound 1 µM) was < 31.6 nM, the IC50 (second compound 3.16 µM) was < 31.6 nM and the IC50 (second compound 10 µM) was < 31.6 nM. The viability, T/C [1] was 34.9%, the viability, T/C [2] was 25.9% and the viability, T/C [3] was 18.1%. It also gave a viability, T/C [4] of 14.8%, a viability, T/C [5] of 17.4% and a viability, T/C [6] of 15.8%. It also gave a viability, T/C [7] of 36.4%, a viability, T/C [8] of 23.2% and a viability, T/C [9] of 16.8%. For the same compound, the viability, T/C [10] was 13.9%, the viability, T/C [11] was 12.5% and the viability, T/C [12] was 12.4%. The viability, T/C [13] was 28.2%, the viability, T/C [14] was 18.1% and the viability, T/C [15] was 11.8%. The viability, T/C [16] was 8.85%, the viability, T/C [17] was 10.4% and the viability, T/C [18] was 8.35%. It also gave a viability, T/C [19] of 17.7%, a viability, T/C [20] of 11.2% and a viability, T/C [21] of 8.78%. For the same compound, the viability, T/C [22] was 7.65%, the viability, T/C [23] was 5.83% and the viability, T/C [24] was 5.6%. The viability, T/C [25] was 9.96%, the viability, T/C [26] was 7.32% and the viability, T/C [27] was 5.29%. It also gave a viability, T/C [28] of 4.36%, a viability, T/C [29] of 4.13% and a viability, T/C [30] of 5.5%. It also gave a viability, T/C [31] of 7.06%, a viability, T/C [32] of 4.42% and a viability, T/C [33] of 3.79%. The viability, T/C [34] was 3.47%, the viability, T/C [35] was 4% and the viability, T/C [36] was 4.4%.
